# Experimental data as given in article PMC7265341, “Quantifying CDK inhibitor selectivity in live cells” (Nature Communications, 2020).
# Where two headings read alike, the source gives them in different places.
# How the values were obtained:
# CDK1/Cyclin E1 = CDK1/Cyclin E1 (Homo sapiens, UniProt P06493); assay: NanoBRET live-cell target engagement, CDK1-NanoLuc/Cyclin E1 in HEK-293; format: binding; details: CDK1/E1, read-out: Inhibition at 10µM (%)
# CDK4/Cyclin D1 = CDK4/Cyclin D1 (Homo sapiens, UniProt P11802); assay: NanoBRET live-cell target engagement, NanoLuc-CDK4/Cyclin D1 in HEK-293; format: binding; details: CDK4/D1, read-out: Inhibition at 10µM (%)
# CDK5/CDK5R1 = CDK5/CDK5R1 (Homo sapiens, UniProt Q00535); assay: NanoBRET live-cell target engagement, CDK5-NanoLuc/CDK5R1 in HEK-293; format: binding; details: CDK5/CDK5R1, read-out: Inhibition at 10µM (%)
# CDK6/Cyclin D1 = CDK6/Cyclin D1 (Homo sapiens, UniProt Q00534); assay: NanoBRET live-cell target engagement, NanoLuc-CDK6/Cyclin D1 in HEK-293; format: binding; details: CDK6/D1, read-out: Inhibition at 10µM (%)
# CDK6/Cyclin D1, sequence (Q00534 whole entry): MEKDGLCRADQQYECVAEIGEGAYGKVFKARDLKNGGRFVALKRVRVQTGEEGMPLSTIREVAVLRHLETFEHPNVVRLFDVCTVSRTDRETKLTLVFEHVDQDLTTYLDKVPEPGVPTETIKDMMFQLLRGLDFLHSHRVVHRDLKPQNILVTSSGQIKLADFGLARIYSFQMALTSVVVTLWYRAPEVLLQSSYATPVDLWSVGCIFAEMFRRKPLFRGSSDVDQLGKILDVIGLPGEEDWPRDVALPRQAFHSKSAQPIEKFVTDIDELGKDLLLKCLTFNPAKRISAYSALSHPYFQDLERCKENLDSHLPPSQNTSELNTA
# CDK6/Cyclin D1, sequence (P24385 whole entry partner): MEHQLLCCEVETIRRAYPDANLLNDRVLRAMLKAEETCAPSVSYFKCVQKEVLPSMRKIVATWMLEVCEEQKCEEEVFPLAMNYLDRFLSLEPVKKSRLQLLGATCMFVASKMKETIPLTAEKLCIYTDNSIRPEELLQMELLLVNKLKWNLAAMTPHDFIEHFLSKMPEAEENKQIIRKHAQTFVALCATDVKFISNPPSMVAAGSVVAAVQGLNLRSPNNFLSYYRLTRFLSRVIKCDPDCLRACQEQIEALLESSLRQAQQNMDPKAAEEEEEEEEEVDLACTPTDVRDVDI
# CDK7 = CDK7 (Homo sapiens, UniProt P50613); assay: NanoBRET live-cell target engagement, NanoLuc-CDK7 in HEK-293; format: binding; details: for inhibition at 10 µM: read-out: Inhibition at 10µM (%)
# CDK7, sequence (P50613 whole entry): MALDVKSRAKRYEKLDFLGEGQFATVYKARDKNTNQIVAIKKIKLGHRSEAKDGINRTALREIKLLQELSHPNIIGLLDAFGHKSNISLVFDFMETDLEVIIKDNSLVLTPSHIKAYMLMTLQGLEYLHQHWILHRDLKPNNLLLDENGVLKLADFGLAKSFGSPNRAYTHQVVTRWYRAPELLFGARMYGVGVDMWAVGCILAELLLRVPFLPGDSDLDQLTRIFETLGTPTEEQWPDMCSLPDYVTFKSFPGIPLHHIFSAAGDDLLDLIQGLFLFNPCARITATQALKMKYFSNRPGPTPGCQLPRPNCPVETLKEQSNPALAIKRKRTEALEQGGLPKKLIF
# CDK8/Cyclin C = CDK8/Cyclin C (Homo sapiens, UniProt P49336); assay: NanoBRET live-cell target engagement, NanoLuc-CDK8/Cyclin C in HEK-293; format: binding; details: for inhibition at 10 µM: read-out: Inhibition at 10µM (%)
# CDK8/Cyclin C, sequence (P49336 whole entry): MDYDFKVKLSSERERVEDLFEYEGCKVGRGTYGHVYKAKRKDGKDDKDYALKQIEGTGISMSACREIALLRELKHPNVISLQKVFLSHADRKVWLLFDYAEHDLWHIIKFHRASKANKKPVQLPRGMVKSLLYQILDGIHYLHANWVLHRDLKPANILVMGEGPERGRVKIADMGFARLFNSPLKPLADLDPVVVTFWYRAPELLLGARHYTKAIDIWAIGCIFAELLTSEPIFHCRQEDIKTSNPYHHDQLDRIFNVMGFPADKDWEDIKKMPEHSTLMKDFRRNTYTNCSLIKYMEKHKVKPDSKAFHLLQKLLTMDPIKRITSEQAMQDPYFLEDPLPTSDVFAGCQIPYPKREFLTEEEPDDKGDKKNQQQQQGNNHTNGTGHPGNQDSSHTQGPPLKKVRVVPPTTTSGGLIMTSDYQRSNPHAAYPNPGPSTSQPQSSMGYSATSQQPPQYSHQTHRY
# CDK8/Cyclin C, sequence (P24863 whole entry partner): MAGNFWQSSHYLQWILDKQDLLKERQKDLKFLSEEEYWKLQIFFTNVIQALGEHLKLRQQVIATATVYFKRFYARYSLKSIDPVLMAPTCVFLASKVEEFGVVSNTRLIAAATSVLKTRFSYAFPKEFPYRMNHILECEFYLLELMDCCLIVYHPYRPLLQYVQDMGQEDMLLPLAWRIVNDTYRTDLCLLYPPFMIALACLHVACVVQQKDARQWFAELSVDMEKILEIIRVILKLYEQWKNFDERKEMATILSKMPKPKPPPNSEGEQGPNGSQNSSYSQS
# CDK9/Cyclin K = CDK9/Cyclin K (Homo sapiens, UniProt P50750); assay: NanoBRET live-cell target engagement, NanoLuc-CDK9/Cyclin K in HEK-293; format: binding; details: CDK9/K, read-out: Inhibition at 10µM (%)
# CDK11B/Cyclin L2 = CDK11B/Cyclin L2 (Homo sapiens, UniProt P21127); assay: NanoBRET live-cell target engagement, CDK11B-NanoLuc/Cyclin L2 in HEK-293; format: binding; details: CDK11b/L2, read-out: Inhibition at 10µM (%)
# CDK12/Cyclin K = CDK12/Cyclin K (Homo sapiens, UniProt Q9NYV4); assay: NanoBRET live-cell target engagement, CDK12-NanoLuc/Cyclin K in HEK-293; format: binding; details: CDK12/K, read-out: Inhibition at 10µM (%)
# CDK13/Cyclin K = CDK13/Cyclin K (Homo sapiens, UniProt Q14004); assay: NanoBRET live-cell target engagement, CDK13-NanoLuc/Cyclin K in HEK-293; format: binding; details: CDK13/K, read-out: Inhibition at 10µM (%)
# CDK14/Cyclin Y = CDK14/Cyclin Y (Homo sapiens, UniProt O94921); assay: NanoBRET live-cell target engagement, CDK14-NanoLuc/Cyclin Y in HEK-293; format: binding; details: CDK14/Y, read-out: Inhibition at 10µM (%)
# CDK14/Cyclin Y, sequence (O94921 whole entry): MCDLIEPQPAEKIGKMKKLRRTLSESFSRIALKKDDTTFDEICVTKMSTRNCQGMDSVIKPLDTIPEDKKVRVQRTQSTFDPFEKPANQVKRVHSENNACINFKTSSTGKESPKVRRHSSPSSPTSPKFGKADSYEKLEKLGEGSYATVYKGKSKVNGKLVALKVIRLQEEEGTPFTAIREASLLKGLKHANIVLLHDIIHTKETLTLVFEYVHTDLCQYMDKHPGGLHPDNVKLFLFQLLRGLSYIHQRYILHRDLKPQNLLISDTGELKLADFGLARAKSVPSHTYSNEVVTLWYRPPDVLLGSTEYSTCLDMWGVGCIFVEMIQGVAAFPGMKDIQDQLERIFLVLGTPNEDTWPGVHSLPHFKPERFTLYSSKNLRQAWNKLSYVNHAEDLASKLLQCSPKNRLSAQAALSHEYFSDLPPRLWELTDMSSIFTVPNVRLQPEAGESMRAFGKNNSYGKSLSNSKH
# CDK14/Cyclin Y, sequence (Q8ND76 whole entry partner): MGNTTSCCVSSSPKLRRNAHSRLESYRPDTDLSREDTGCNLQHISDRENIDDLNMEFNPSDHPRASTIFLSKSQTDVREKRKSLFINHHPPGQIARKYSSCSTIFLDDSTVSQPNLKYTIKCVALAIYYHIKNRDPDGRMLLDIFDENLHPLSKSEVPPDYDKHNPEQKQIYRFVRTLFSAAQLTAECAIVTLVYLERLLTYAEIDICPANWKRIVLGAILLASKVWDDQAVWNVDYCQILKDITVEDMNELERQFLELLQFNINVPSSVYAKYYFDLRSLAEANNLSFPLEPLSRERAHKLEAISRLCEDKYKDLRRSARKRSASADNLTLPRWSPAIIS
# CDK15/Cyclin Y = CDK15/Cyclin Y (Homo sapiens, UniProt Q96Q40); assay: NanoBRET live-cell target engagement, NanoLuc-CDK15/Cyclin Y in HEK-293; format: binding; details: CDK15/Y, read-out: Inhibition at 10µM (%)
# CDK15/Cyclin Y, sequence (Q96Q40 whole entry): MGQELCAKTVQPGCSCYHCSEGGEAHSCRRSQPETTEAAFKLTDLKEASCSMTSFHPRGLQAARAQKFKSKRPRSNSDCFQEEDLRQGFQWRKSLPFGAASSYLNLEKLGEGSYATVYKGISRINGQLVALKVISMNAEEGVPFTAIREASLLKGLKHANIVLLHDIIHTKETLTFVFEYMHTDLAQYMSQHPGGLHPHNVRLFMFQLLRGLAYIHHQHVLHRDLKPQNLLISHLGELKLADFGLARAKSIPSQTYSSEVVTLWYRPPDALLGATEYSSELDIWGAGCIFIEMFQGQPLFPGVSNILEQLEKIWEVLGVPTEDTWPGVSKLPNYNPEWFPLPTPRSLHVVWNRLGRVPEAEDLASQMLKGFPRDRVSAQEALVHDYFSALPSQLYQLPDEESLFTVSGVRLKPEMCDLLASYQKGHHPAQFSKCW
# CDK15/Cyclin Y, sequence (Q8ND76 whole entry partner): as the sequence (Q8ND76 whole entry partner) above
# CDK16/Cyclin Y = CDK16/Cyclin Y (Homo sapiens, UniProt Q00536); assay: NanoBRET live-cell target engagement, CDK16-NanoLuc/Cyclin Y in HEK-293; format: binding; details: CDK16/Y; for IC50: read-out: IC50; for inhibition at 10 µM: read-out: Inhibition at 10µM (%)
# CDK17/Cyclin Y = CDK17/Cyclin Y (Homo sapiens, UniProt Q00537); assay: NanoBRET live-cell target engagement, CDK17-NanoLuc/Cyclin Y in HEK-293; format: binding; details: CDK17/Y; for IC50: read-out: IC50; for inhibition at 10 µM: read-out: Inhibition at 10µM (%)
# CDK18/Cyclin Y = CDK18/Cyclin Y (Homo sapiens, UniProt Q07002); assay: NanoBRET live-cell target engagement, CDK18-NanoLuc/Cyclin Y in HEK-293; format: binding; details: CDK18/Y; for IC50: read-out: IC50; for inhibition at 10 µM: read-out: Inhibition at 10µM (%)
# CDK18/Cyclin Y, sequence (Q07002 whole entry): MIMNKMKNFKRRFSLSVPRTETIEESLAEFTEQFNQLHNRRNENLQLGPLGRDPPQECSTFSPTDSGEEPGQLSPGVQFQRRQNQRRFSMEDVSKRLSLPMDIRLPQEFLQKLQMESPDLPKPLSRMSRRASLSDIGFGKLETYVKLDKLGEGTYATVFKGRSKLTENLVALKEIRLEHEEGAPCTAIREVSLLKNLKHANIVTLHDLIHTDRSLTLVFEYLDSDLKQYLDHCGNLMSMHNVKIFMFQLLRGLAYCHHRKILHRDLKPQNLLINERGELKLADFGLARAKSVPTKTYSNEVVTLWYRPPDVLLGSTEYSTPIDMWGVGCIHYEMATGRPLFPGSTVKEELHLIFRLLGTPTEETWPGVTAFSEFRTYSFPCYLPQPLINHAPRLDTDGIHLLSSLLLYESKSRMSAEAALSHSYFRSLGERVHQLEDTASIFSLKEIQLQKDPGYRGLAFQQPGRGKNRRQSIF
# CDK18/Cyclin Y, sequence (Q8ND76 whole entry partner): as the sequence (Q8ND76 whole entry partner) above
# CDK20/Cyclin H = CDK20/Cyclin H (Homo sapiens, UniProt Q8IZL9); assay: NanoBRET live-cell target engagement, NanoLuc-CDK20/Cyclin H in HEK-293; format: binding; details: CDK20/H, read-out: Inhibition at 10µM (%)
# CDK19/Cyclin C = CDK19/Cyclin C (Homo sapiens, UniProt Q9BWU1); assay: NanoBRET live-cell target engagement, NanoLuc-CDK19/Cyclin C in HEK-293; details: for inhibition at 10 µM: read-out: Inhibition at 10µM (%), CDK19/C
# CDK10/Cyclin L2 = CDK10/Cyclin L2 (Homo sapiens, UniProt Q15131); assay: NanoBRET live-cell target engagement, CDK10-NanoLuc/Cyclin L2 in HEK-293; details: for IC50: IC50 (nM), CDK10/L2; for inhibition at 10 µM: read-out: Inhibition at 10µM (%), CDK10/L2
# CDK10/Cyclin L2, sequence (Q15131 whole entry): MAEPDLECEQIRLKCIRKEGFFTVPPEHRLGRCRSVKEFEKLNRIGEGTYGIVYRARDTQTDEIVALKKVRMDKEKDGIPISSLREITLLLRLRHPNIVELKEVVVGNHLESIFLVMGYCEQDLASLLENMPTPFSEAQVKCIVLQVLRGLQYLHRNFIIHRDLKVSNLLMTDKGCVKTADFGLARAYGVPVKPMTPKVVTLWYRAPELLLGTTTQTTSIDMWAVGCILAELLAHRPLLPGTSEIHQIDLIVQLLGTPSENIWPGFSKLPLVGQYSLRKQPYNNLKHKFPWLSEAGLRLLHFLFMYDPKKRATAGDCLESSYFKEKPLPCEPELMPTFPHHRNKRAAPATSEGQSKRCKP
# CDK1/Cyclin E1, sequence (P06493 whole entry): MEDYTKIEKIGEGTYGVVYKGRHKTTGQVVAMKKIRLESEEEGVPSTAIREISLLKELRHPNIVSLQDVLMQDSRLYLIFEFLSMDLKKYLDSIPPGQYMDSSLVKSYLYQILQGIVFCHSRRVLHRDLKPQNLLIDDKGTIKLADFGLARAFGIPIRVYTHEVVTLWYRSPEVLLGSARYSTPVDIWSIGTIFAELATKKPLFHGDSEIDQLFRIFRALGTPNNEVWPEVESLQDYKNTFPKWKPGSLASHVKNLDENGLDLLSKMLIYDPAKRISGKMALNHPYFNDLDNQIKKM
# CDK1/Cyclin E1, sequence (P24864 whole entry partner): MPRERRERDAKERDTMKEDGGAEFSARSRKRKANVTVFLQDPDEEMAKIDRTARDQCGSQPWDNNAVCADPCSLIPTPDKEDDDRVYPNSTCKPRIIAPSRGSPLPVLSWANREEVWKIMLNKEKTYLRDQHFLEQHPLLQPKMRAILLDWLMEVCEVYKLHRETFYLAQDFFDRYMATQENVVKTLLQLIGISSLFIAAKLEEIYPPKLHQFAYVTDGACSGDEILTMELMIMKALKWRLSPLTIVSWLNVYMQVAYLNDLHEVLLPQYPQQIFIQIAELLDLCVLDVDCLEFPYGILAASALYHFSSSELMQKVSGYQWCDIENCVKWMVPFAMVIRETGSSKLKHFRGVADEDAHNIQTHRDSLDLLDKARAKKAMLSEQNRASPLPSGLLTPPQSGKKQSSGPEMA
structure (smiles),measurement,setting,value
CN1CCN(Cc2ccc(NC(=O)Nc3ccc(Oc4ccnc(N)n4)cc3)cc2C(F)(F)F)CC1 [K03861],inhibition at 10 µM,CDK1/Cyclin E1; average,70.4%
same,inhibition at 10 µM,CDK1/Cyclin E1; experiment 1,66.2%
same,inhibition at 10 µM,CDK1/Cyclin E1; experiment 2,74.6%
same,inhibition at 10 µM,CDK4/Cyclin D1; average,78.8%
same,inhibition at 10 µM,CDK4/Cyclin D1; experiment 1,79.9%
same,inhibition at 10 µM,CDK4/Cyclin D1; experiment 2,77.6%
same,inhibition at 10 µM,CDK5/CDK5R1; average,23.7%
same,inhibition at 10 µM,CDK5/CDK5R1; experiment 1,27.8%
same,inhibition at 10 µM,CDK5/CDK5R1; experiment 2,19.6%
same,inhibition at 10 µM,CDK6/Cyclin D1; average,35.2%
same,inhibition at 10 µM,CDK6/Cyclin D1; experiment 1,23.8%
same,inhibition at 10 µM,CDK6/Cyclin D1; experiment 2,46.5%
same,inhibition at 10 µM,"CDK7; CDK7, average",81.8%
same,IC50,"CDK7; CDK7, experiment 1, read-out: IC50",76 nM
same,inhibition at 10 µM,"CDK7; CDK7, experiment 1",83.6%
same,IC50,"CDK7; CDK7, experiment 2, read-out: IC50",59 nM
same,inhibition at 10 µM,"CDK7; CDK7, experiment 2",79.9%
same,IC50,"CDK7; CDK7, experiment 3, read-out: IC50",55 nM
same,IC50,"CDK7; live HEK-293, 2 h, mean ± S.E.M. (n=3) or mean (n=2), read-out: IC50 for CDK/cyclin complexes, CDK7",63 nM
same,inhibition at 10 µM,"CDK8/Cyclin C; CDK8/C, average",95.6%
same,IC50,"CDK8/Cyclin C; CDK8/C, experiment 1, read-out: IC50",2.1 nM
same,inhibition at 10 µM,"CDK8/Cyclin C; CDK8/C, experiment 1",96.7%
same,IC50,"CDK8/Cyclin C; CDK8/C, experiment 2, read-out: IC50",5 nM
same,inhibition at 10 µM,"CDK8/Cyclin C; CDK8/C, experiment 2",94.5%
same,IC50,"CDK8/Cyclin C; CDK8/C, experiment 3, read-out: IC50",2.2 nM
same,IC50,"CDK8/Cyclin C; live HEK-293, 2 h, mean ± S.E.M. (n=3) or mean (n=2), read-out: IC50 for CDK/cyclin complexes, CDK8/C",3 nM
same,inhibition at 10 µM,CDK9/Cyclin K; average,85.1%
same,inhibition at 10 µM,CDK9/Cyclin K; experiment 1,84.3%
same,inhibition at 10 µM,CDK9/Cyclin K; experiment 2,85.8%
same,inhibition at 10 µM,CDK11B/Cyclin L2; average,9.9%
same,inhibition at 10 µM,CDK11B/Cyclin L2; experiment 1,15.5%
same,inhibition at 10 µM,CDK11B/Cyclin L2; experiment 2,4.3%
same,inhibition at 10 µM,CDK12/Cyclin K; average,43.7%
same,inhibition at 10 µM,CDK12/Cyclin K; experiment 1,39%
same,inhibition at 10 µM,CDK12/Cyclin K; experiment 2,48.3%
same,inhibition at 10 µM,CDK13/Cyclin K; average,36.6%
same,inhibition at 10 µM,CDK13/Cyclin K; experiment 1,32.4%
same,inhibition at 10 µM,CDK13/Cyclin K; experiment 2,40.8%
same,inhibition at 10 µM,CDK14/Cyclin Y; average,84.9%
same,inhibition at 10 µM,CDK14/Cyclin Y; experiment 1,87.3%
same,inhibition at 10 µM,CDK14/Cyclin Y; experiment 2,82.6%
same,inhibition at 10 µM,CDK15/Cyclin Y; average,80.7%
same,inhibition at 10 µM,CDK15/Cyclin Y; experiment 1,82.9%
same,inhibition at 10 µM,CDK15/Cyclin Y; experiment 2,78.6%
same,IC50,CDK16/Cyclin Y; average (± SEM where n=3),260 ± 70 nM
same,IC50,CDK16/Cyclin Y; experiment 1,140 nM
same,inhibition at 10 µM,CDK16/Cyclin Y; experiment 1,74.3%
same,IC50,CDK16/Cyclin Y; experiment 2,365 nM
same,inhibition at 10 µM,CDK16/Cyclin Y; experiment 2,80.7%
same,IC50,CDK16/Cyclin Y; experiment 3,270 nM
same,IC50,CDK17/Cyclin Y; average (± SEM where n=3),190 ± 60 nM
same,inhibition at 10 µM,CDK17/Cyclin Y; average,89.9%
same,IC50,CDK17/Cyclin Y; experiment 1,80 nM
same,inhibition at 10 µM,CDK17/Cyclin Y; experiment 1,89.1%
same,IC50,CDK17/Cyclin Y; experiment 2,281 nM
same,inhibition at 10 µM,CDK17/Cyclin Y; experiment 2,90.7%
same,IC50,CDK17/Cyclin Y; experiment 3,200 nM
same,IC50,CDK18/Cyclin Y; average (± SEM where n=3),400 ± 100 nM
same,inhibition at 10 µM,CDK18/Cyclin Y; average,93.7%
same,IC50,CDK18/Cyclin Y; experiment 1,144 nM
same,inhibition at 10 µM,CDK18/Cyclin Y; experiment 1,88.2%
same,IC50,CDK18/Cyclin Y; experiment 2,408 nM
same,inhibition at 10 µM,CDK18/Cyclin Y; experiment 2,99.2%
same,IC50,CDK18/Cyclin Y; experiment 3,610 nM
same,inhibition at 10 µM,CDK20/Cyclin H; experiment 1,40%
same,inhibition at 10 µM,CDK20/Cyclin H; experiment 2,64.4%
same,IC50,"CDK19/Cyclin C; IC50 (nM), CDK19/C, experiment 1",1.4 nM
same,IC50,"CDK19/Cyclin C; IC50 (nM), CDK19/C, experiment 2",2.3 nM
same,IC50,"CDK19/Cyclin C; IC50 (nM), CDK19/C, experiment 3",0.5 nM
same,IC50,"CDK19/Cyclin C; IC50 (nM), CDK19/Y (so in the source), average (± SEM where n=3)",1.4 ± 0.5 nM
same,IC50,"CDK19/Cyclin C; IC50 for CDK/cyclin complexes, CDK19/C, live HEK-293, 2 h, mean ± S.E.M. (n=3) or mean (n=2)",1.4 ± 0.5 nM
same,inhibition at 10 µM,CDK19/Cyclin C; average,96.4%
same,inhibition at 10 µM,CDK19/Cyclin C; experiment 1,95.5%
same,inhibition at 10 µM,CDK19/Cyclin C; experiment 2,97.3%
same,IC50,CDK10/Cyclin L2; average (± SEM where n=3),500 ± 100 nM
same,IC50,CDK10/Cyclin L2; experiment 1,310 nM
same,IC50,CDK10/Cyclin L2; experiment 2,530 nM
same,IC50,CDK10/Cyclin L2; experiment 3,670 nM
same,inhibition at 10 µM,CDK10/Cyclin L2; average,79.8%
same,inhibition at 10 µM,CDK10/Cyclin L2; experiment 1,79.7%
same,inhibition at 10 µM,CDK10/Cyclin L2; experiment 2,79.9%
